Results reported in patent publication US20240299408A1, “METHODS OF TREATING 4-REPEAT TAUOPATHIES” (Woolsey Pharmaceuticals, Inc., priority 2020, published 2024).
Where a name gives a salt, the structure may show the parent alone.

B1: ABBV-8E12: humanized anti-tau monoclonal antibody (antibody, chains of the INN, looked up, V domains shown)
VH: EVKVVESGGGLVQPGGSMKLSCVVSGFTFSNYWVNWVRQAPGKGLEWVAQIRLKSDNYATHYEESVKGRFTISRDDSKSSVYLQMNNLRAEDSGIYYCTNWEDYWGQGTTVTVSS
VL: DIVLTQSPDSLAVSLGERATISCRASQSVSTSRYSYIHWYQQKPGQPPKLLIKYASNLESGVPSRFSGSGSGTDFTLNIHPLEPEDFATYYCHHSWEIPLTFGQGTKLEIK
B2: Gosuranemab: humanized monoclonal antibody that targets N-terminal tau (antibody, chains of the INN, looked up, V domains shown)
VH: EVHLVESGGALVKPGGSLRLSCAASGFSFSKYGMSWVRQAPGKGLEWVATISSSGSRTYYPDSVKGRFTISRDNAKNTLYLQMNSLRAEDTAMYYCSISWDGAMDYWGQGTTVTVSS
VL: DVVMTQSPLSLPVTLGQPASISCKSSQSIVHSNGNTYLEWYLQKPGQSPQLLVYKVSNRFSGVPDRFSGSGSGTDFTLKISRVEAEDVGTYYCFQGSLVPWAFGGGTKVEIK

Tests used:
PSP patients = conditions: cited from earlier work; for effect or benefit in clinical trial in PSP: PSP patients (riluzole: PSP and MSA)
[1] = in vivo, 1-hydroxy metabolite; cited from earlier work
[2] = test system: subjects with probable or possible PSP; experiment: treatment of probable or possible PSP subjects with fasudil, assessments at six months and one year versus baseline and historical controls; assay type: in vivo, human

| Molecule | effect or benefit in clinical trial in PSP (PSP patients) | also measured |
| --- | --- | --- |
| O=C(Oc1ccccc1C(=O)O)c1ccccc1O [Salsalate] | failed |  |
| COC1=C(OC)C(=O)C(C/C=C(\C)CC/C=C(\C)CC/C=C(\C)CC/C=C(\C)CC/C=C(\C)CC/C=C(\C)CC/C=C(\C)CC/C=C(\C)CC/C=C(\C)CCC=C(C)C)=C(C)C1=O [coenzyme Q10] | failed to provide benefit |  |
| [Li] [lithium] |  | tolerability in open-label trial in PSP (PSP patients; open-label trial in PSP): terminated due to poor tolerability |
| Nc1nc2ccc(OC(F)(F)F)cc2s1 [riluzole] | failed to demonstrate effects |  |
| CC[C@H](C)[C@H](NC(=O)[C@H](CO)NC(=O)[C@@H](NC(=O)[C@@H]1CCCN1C(=O)[C@H](C)NC(=O)[C@@H](N)CC(N)=O)C(C)C)C(=O)N1CCC[C@H]1C(=O)N[C@@H](CCC(N)=O)C(=O)O [Davunetide] | not shown not to be effective |  |
| O=c1sn(-c2cccc3ccccc23)c(=O)n1Cc1ccccc1 [tideglusib] | failed to show benefit |  |
| O=S(=O)(c1cccc2c(O)nccc12)N1CCCNCC1 [M3] |  | half-life [1]: about 8 hours |
| C=CC1O[C@H]2C[C@H]3OC[C@@]3(OC(C)=O)[C@H]3[C@H](OC(=O)c4ccccc4)[C@]4(O)C[C@H](OC(=O)[C@H](O)[C@H](CC(C)C)NC(=O)OC(C)(C)C)C(C)=C([C@H](OC(C)=O)[C@H](O1)[C@]23C)C4(C)C (stereo partly drawn) [TPI 287] | failed to show any effect |  |
| O=S(=O)(c1cccc2cnccc12)N1CCCNCC1 [fasudil, Hexahydro-1-(5-isoquinolinesulfonyl)-1H-1,4-diazepine monohydrochloride hemihydrate] |  | oculomotor and sleep parameters ([2]; fasudil 180 mg/day): improve; PSP-RS increase over a year ([2]; fasudil 180 mg/day (60 mg tid), average is closer to 10): ≤ 5 point |
| B1 | failed to demonstrate an effect |  |
| B2 | no effect |  |
